Consider six molecules from US20020165119A1, “Method of treating inflammatory conditions by inhibiting cytosolic phospholipase A2” (priority 2001, published 2002).

Entries after “also recorded” stand apart in the source; their conditions may differ. Numbered stars: 1 amine (or outer) side, 2 acyl side, 3 side chain; on linkers, the order of the positions; unused ones are H or OH. Bridge positions count the residues as written; N and C are the ends. Square brackets hold non-standard residues; d marks the D form. Peptide text beside a SMILES is read from it. X1 = CC(C)CCCCCCCCC[C@H](CC(=O)[*:1])O[*:2]

The subject of test [1] is OA-sensitized guinea pigs. Put plainly: Antigen-induced bronchoconstriction: specific airway resistance (sRaw) after ovalbumin challenge. It counts as in vivo, guinea pig. The following applies: for increase in sRaw caused by OA challenge (immediate bronchoconstriction): pre-treatment i.p. 60 min before antigen challenge; for sRaw: drug alone. From the text:
Male albino Hartley strain guinea pigs were obtained from Sankyou Laboratory Service (Toyama, Japan), and were quarantined in the Animal Research Center of Kanazawa University for 1 wk before study. All animal procedures in this study complied with the standards specified in the Guideline for the Care and Use of Laboratory Animals at the Takara-machi Campus of Kanazawa University.
(§1) Guinea pigs weighing 200 to 250 g were actively sensitized by a modification of the method reported by Andersson et al., Int. Arch. Allergy Appl. […] Guinea pigs were pretreated with an i.p. injection of 30 mg/kg of cyclophosphamide. Two days later, the animals were immunized with 2.0 mg of ovalbumin and 100 mg of aluminum hydroxide [Al(OH)3]. A booster injection of 10 μg of OA together with 100 mg of Al(OH)3 was given 3 wk after the primary immunization.
Animals were placed in a whole-body, double-chamber plethysmograph for measurement of specific airway resistance (sRaw) by a modification of the method described by Pennock et al., Appl. […] A respiratory mechanics analyzer (model PMUA+SAR, Buxco Electronics, Troy, N.Y.) was used to measure the phase shift between nasal and thoracic airflow and to compute sRaw on a breath by breath basis. A bias flow of air (20 ml/sec) was maintained through the nasal chamber to ensure a constant supply of fresh air to the animal. The analyzer subtracted this flow from its calculations. […] The nebulizer output was 0.14 ml/min. Baseline measurement of sRaw was obtained in all groups 5 min before antigen challenge.

Test [2] deals with OA-sensitized guinea pigs. Put plainly: Antigen-induced airway hyperresponsiveness to methacholine (PC200). The following applies: for antigen (ovalbumin)-induced methacholine airway hyperresponsiveness: 24 h after OA challenge; for baseline airway responsiveness to methacholine: drug alone. Type of test: in vivo, guinea pig. The method, then:
as §1
Antigen-Induced Airway Hyperresponsiveness to Methacholine
Antigen-induced airway response to methacholine was measured 24 h after challenge. Guinea pigs were anaesthetized by an i.p. injection of 75 mg/kg of sodium pentobarbitone and were placed in a supine position. […] Exp. Path. […] After completion of all surgical procedures, the lungs were overinflated by two times tidal volume for two breaths by closing the outlet port of the respirator. This was done to standardize the volume history of the lungs. […] See Minami et al., Jpn.
Airway responsiveness to inhaled methacholine was expressed as the dose of methacholine required to provoke a 200% increase (PC200) in the Pao. Values for PC200 were logarithmically transformed for analysis and reported as the geometric mean [geometric SEM (GSEM)]. All measurements except for PC200 were expressed as mean±SEM. Variation between three or more groups was analyzed using analysis of variance (ANOVA) followed by Fisher's protected least significant difference. Variation between two groups was tested using Student's t test. A value of p<0.05 was accepted as an indication of statistical significance.

In test [3] the test system is OA-sensitized guinea pigs. Briefly: Bronchoalveolar lavage cell counts after antigen challenge. The following applies: for BAL eosinophils: 24 h after OA-challenge; for airway eosinophil influx after antigen challenge: guinea pig, in vivo; for eosinophil count in BAL fluid: after ovalbumin challenge. It counts as in vivo, guinea pig. The method, then:
Analysis of Bronchoalveolar Cells
(§2) After assessment of antigen-induced airway hyperresponsiveness or 24 h after IL-5 injection, airway inflammation was assessed. Immediately before and 1, 24, 48, and 72 h after antigen challenge, bronchoalveolar lavage (BAL) was performed to determine the time-course of cellular infiltration into airways. Two aliquots of 10 ml sterile 37° C. saline were infused into the tracheal cannula. The BAL fluid was recovered manually by gentle aspiration with a disposable syringe after each infusion. The total cell number was determined using a Turk solution. Differential cell counts were performed on cytospin preparations (Cytospin 2, Shandon, England) by counting 300 cells after staining by the May-Grüwald-Giemsa method in a single-blind method.

The next test relates to guinea pigs. Briefly: IL-5-induced airway eosinophil accumulation (BAL). It counts as in vivo, guinea pig. The following applies: for BAL eosinophils: 24 h after IL-5 treatment; for airway eosinophil influx after treatment with IL-5: guinea pig, in vivo. The method, then: IL-5-Induced Airway Eosinophil Accumulation
Guinea pigs weighing 350 to 400 g were treated i.p. before IL-5 injection with TFMK (20 mg/kg), E6123 (0.1 mg/kg), or vehicle (n=7 in each group). Animals were lightly anesthetized with diethyl ether inhalation, and then 200 μl sterile PBS containing 20 ng IL-5 was intranasally injected into the airway.
as §2

Another test has as its system bronchial airways. Briefly: Lung histology after ovalbumin challenge. It counts as in vivo, guinea pig. The following applies: 2-20 mg/kg TFMK, 24 h. From the text:
After washing with sterile saline, the lung was fixed by perfusion with 10% formalin. Lung sections were stained with hematoxylin and eosin.

Test [4] has as its system TXB2 production from whole blood. Briefly: Effect of i.p. TFMK on TXB2 production ex vivo (FMLP/CB-stimulated whole blood). It counts as in vivo, guinea pig. The following applies: FMLP 10^−6 M + 5 μg/ml cytochalasin B; after 20 mg/kg i.p. TFMK. How it is done:
Effect of i.p. TFMK on TXB2 Production ex vivo
Sixty min after TFMK (20 mg/kg or vehicle i.p.; n=4 in each group), guinea pigs were anesthetized and heparinized blood (20 U/ml) was obtained via right carotid artery. Duplicate 1-ml aliquots of whole blood were incubated first with 5 μg/ml CB for 2 min and subsequently with 10^−6 M FMLP for 30 additional min at room temperature. Control samples from the same animals were incubated with buffer alone. Immediately after centrifugation, TXB2 was measured by enzyme immunoassay using reagents obtained from Cayman Chemical (Ann Arbor, Mich.).

The next test addresses T1, cPLA2 (Homo sapiens, UniProt P47712).
T1 sequence (P47712 1-749): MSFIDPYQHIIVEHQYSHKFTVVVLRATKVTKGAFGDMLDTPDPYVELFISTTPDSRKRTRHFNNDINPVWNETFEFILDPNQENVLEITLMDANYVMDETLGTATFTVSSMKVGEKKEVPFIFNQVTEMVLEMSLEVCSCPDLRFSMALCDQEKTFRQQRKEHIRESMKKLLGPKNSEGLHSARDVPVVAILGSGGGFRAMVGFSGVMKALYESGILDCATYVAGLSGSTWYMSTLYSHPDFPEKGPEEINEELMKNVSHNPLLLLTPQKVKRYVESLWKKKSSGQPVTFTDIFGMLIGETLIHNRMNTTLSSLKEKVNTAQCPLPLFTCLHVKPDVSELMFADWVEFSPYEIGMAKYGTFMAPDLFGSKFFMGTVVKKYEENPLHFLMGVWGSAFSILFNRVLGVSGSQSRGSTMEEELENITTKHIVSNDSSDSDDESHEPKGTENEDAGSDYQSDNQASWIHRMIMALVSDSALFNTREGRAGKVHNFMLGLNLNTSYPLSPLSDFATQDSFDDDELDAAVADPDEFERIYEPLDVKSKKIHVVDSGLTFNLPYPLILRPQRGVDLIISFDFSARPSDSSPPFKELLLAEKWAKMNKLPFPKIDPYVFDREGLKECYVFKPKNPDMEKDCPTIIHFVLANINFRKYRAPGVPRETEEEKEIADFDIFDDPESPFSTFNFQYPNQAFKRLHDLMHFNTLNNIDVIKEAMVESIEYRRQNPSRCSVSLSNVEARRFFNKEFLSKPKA
The following applies: Zhu et al., J. Immunol. 163:3423-3429, 1999; cited from earlier work.

Consider `CC(C)(C)c1ccc(C(=O)CCCN2CCC(OC(c3ccccc3)c3ccccc3)CC2)cc1` [ebastine], for which, in test [1], the “increase in sRaw caused by OA challenge (immediate bronchoconstriction)” value (from here on “increase in sRaw caused by OA challenge”) is on record as “significantly attenuated”. In test [2], the “antigen (ovalbumin)-induced methacholine airway hyperresponsiveness” value is on record as “had no effect”.
Turning to `Cc1nnc2n1-c1sc3c(c1C(c1ccccc1Cl)=N[C@H]2C)CCN(C(=O)C1CC1)C3` [E6123], in test [1], the sRaw entry is on record as “neither drug alone had any effect” and the “increase in sRaw caused by OA challenge” value is reported as “not attenuated”. Moreover, in test [2], the “antigen (ovalbumin)-induced methacholine airway hyperresponsiveness” value is “complete blockade” and the “baseline airway responsiveness to methacholine” value is “not altered; also recorded: neither drug alone had any effect”. Moreover, in test [3], the BAL eosinophils is 1.6±0.6 ×10^5/ml and the “airway eosinophil influx after antigen challenge” value is “dose-dependently blocked”. Also, in the test with guinea pigs, the BAL eosinophils is reported as 0.4±0.1 ×10^5/ml and the “airway eosinophil influx after treatment with IL-5” value is “dose-dependently blocked”. The “BAL total cell number” value in the test with guinea pigs (after IL-5 treatment) is listed as 3.3±0.4 ×10^5/ml.
`CCCCC/C=C\C/C=C\C/C=C\C/C=C\CCCC(=O)C(F)(F)F` [TFMK, arachidonic trifluoromethyl ketone]: in test [1], the sRaw entry is reported as “neither drug alone had any effect” and the “increase in sRaw caused by OA challenge” value is reported as “not attenuated”. For the same molecule, the “PC200 (provocative concentration of methacholine causing a 200% increase in Pao)” value in test [2] (antigen challenged animals pretreated with 20 mg/kg TFMK, 24 h after challenge, geometric mean (GSEM)) is 218 ± 0.08 µg/mL. Moreover, in test [2], the “baseline airway responsiveness to methacholine” value was “not altered; also recorded: neither drug alone had any effect”. In test [3], the BAL eosinophils is reported as 2.1±0.7 ×10^5/ml and the “airway eosinophil influx after antigen challenge” value is “dose-dependently blocked”. In addition, in the test with guinea pigs, the BAL eosinophils was 0.7±0.2 ×10^5/ml and the “airway eosinophil influx after treatment with IL-5” value is recorded as “dose-dependently blocked”. For the same molecule, in the test on bronchial airways, the “inflammatory cell infiltration in epithelial layer and lamina propria (histology)” value was “blocked cell infiltration progressively”. For the same molecule, the “increase in stimulated TXB2 production from whole blood” value in test [4] came to 13.5±10.5%.
Regarding `CC1=C(C)C(=O)C(CCCCC#CCCCC#CCO)=C(C)C1=O` [AA-861], the “eosinophil count in BAL fluid” value in test [3] is given as “no effect”.
With `CC(C)CCCCCCCCC[C@@H]1CC(=O)N[C@@H](CCC(=O)O)C(=O)N[C@@H](CC(C)C)C(=O)N[C@H](CC(C)C)C(=O)N[C@@H](C(C)C)C(=O)N[C@@H](CC(=O)O)C(=O)N[C@H](CC(C)C)C(=O)N[C@@H](CC(C)C)C(=O)O1` [Surfactin] (EL[dL]VD[dL]L; linker N-C via X1), on cPLA2, the “activity of cPLA2” value is given as “inhibit or reduce the activity”.
For `COc1ccc2c(c1)c(CC(=O)O)c(C)n2C(=O)c1ccc(Cl)cc1` [indomethacin], the “increase in sRaw caused by OA challenge” value in test [1] is recorded as “not attenuated”. The “antigen (ovalbumin)-induced methacholine airway hyperresponsiveness” value in test [2] is given as “neither indomethacin, a COX inhibitor, nor AA861, a 5-LO inhibitor, blocked”. Also, in test [3], the “eosinophil count in BAL fluid” value is reported as “no effect”.
